Patent US5449612A, “Process for identifying candida by means of chromogenic substances” (Serbio, priority 1990, dated 1995)
Non-standard residues stand in square brackets, D forms with d. Residues, ends and D or L forms follow the SMILES beside them. *: point of attachment. Hyp = O=C(O)[C@@H]1C[C@@H](O)CN1; pNA = O=[N+]([O-])c1ccc(N*)cc1; Phg = N[C@H](C(=O)O)c1ccccc1; Pip = O=C(O)[C@@H]1CCCCN1; Cbz = O=C(OCc1ccccc1)*; Boc = CC(C)(C)OC(=O)*

Tests used:
[1] = system: Candida albicans; test: Tests on substrates against Candida albicans, colour reading on buffered gelose; format: cell-based; conditions: Table I; for Reading at 24 h: medium pH 6.0, YNB, glucose, agar, gentamycin, coloration or fluorescence
[2] = system: Candida tropicalis; test: Tests on substrates against Candida tropicalis, colour reading on buffered gelose; format: cell-based; set-up: C. TROPICALIS reading at 48 h: key to the marks not given beside the values; conditions: for C. TROPICALIS reading at 24 h: Table III, medium pH 6.0; for Reading at 24 h: Table II, medium pH 6.0, YNB, glucose, agar, gentamycin
[3] = system: T. glabrata; test: Tests on substrates against T. glabrata, colour reading on buffered gelose; for T. GLABRATA reading at 24 h: key: -: none; +: weak; ++: moderate; +++: intense; ++++: very intense; format: cell-based, Torulopsis glabrata; set-up: T. GLABRATA reading at 48 h: key: -: none; +: weak; ++: moderate; +++: intense; ++++: very intense
[4] = system: Candida krusei; test: Tests on substrates against Candida krusei, colour reading on buffered gelose; for Reading at 24 h: key: -: none; +: weak; ++: moderate; +++: intense; ++++: very intense; format: cell-based; set-up: key to Specificity: interference with C. krusei: (a): interference with C. albicans (++++); (b): interference with C. krusei (++); (c): interference with C. tropicalis (++); conditions: for Reading at 24 h: Table IV, medium pH 6.0
[5] = system: Candida guillermondii; test: Tests on substrates against Candida guillermondii; set-up: Reading at 24 h: key to the marks not given beside the values; conditions: for Reading at 24 h: Table V
[6] = system: C. tropicalis; test: Diagnosis from isolated colonies on gelose 2/5; format: cell-based, Candida tropicalis

Compound: CC(C)(C)OC(=O)NCC(=O)N1CCC[C@H]1C(=O)N[C@@H](CCCNC(=N)N)C(=O)Nc1ccc([N+](=O)[O-])cc1 [Boc-Gly-L-Pro-L-Arg-pNA.AcOH] (Boc-Gly-Pro-Arg-pNA)
- Reading at 24 h [1]: ++
- Specificity: interference with C. tropicalis ([2]; Table I): (b)
- C. TROPICALIS reading at 24 h [2]: +
- Specificity: interference with C. tropicalis ([2]; Table IV): (b)
- Specificity: interference with T. glabrata [3]: (e) and (f)
- T. GLABRATA reading at 24 h ([3]; pH 6): +++
- Reading at 24 h [4]: -
- Specificity: interference with C. guillermondii ([5]; Table I): (d)

Compound: CC(C)(C)OC(=O)N1C[C@H](O)C[C@H]1C(=O)N1CCC[C@H]1C(=O)N[C@@H](CCCNC(=N)N)C(=O)Nc1ccc([N+](=O)[O-])cc1 [Boc-L-4Hyp-L-Pro-L-Arg-pNA.AcOH] (Boc-[Hyp]-Pro-Arg-pNA)
- Reading at 24 h [1]: ++++
- Specificity: interference with C. tropicalis ([2]; Table I): (b)

Compound: CC(C)C[C@H](NC(=O)OC(C)(C)C)C(=O)N[C@@H](CO)C(=O)N[C@H](C(=O)N[C@@H](CCCNC(=N)N)C(=O)Nc1ccc([N+](=O)[O-])cc1)[C@@H](C)O [Boc-L-Leu-L-Ser-L-Thr-L-Arg-pNA.AcOH] (Boc-LSTR-pNA)
- Specificity: interference with C. tropicalis ([2]; Table V): (c)
- Reading at 24 h [5]: ++++

Compound: CC(=O)O.N=C(N)NCCC[C@H](NC(=O)OCc1ccccc1)C(=O)Nc1ccc([N+](=O)[O-])cc1 [Cbo-L-Arg-pNA.AcOH]
- Reading at 24 h [1]: -

Compound: O=C(Nc1ccc([N+](=O)[O-])cc1)[C@@H]1CCCN1C(=O)OCc1ccccc1 [Cbo-L-Pro-pNA]
- Reading at 24 h [1]: -

Compound: N=C(N)NCCC[C@H](NC(=O)[C@H]1CCCN1C(=O)[C@H]1CCCN1)C(=O)Nc1ccc([N+](=O)[O-])cc1 [H-D-Pro-D-Pro-L-Arg-pNA.2AcOH] (H-[dP]-[dP]-Arg-pNA)
- Reading at 24 h [2]: -

Compound: N=C(N)NCCC[C@H](NC(=O)[C@@H]1CCCN1C(=O)CNC(=O)[C@H]1CCCN1)C(=O)Nc1ccc([N+](=O)[O-])cc1 [H-D-Pro-Gly-L-Pro-L-Arg-pNA.2AcOH] (H-[dP]GPR-pNA)
- C. TROPICALIS reading at 24 h [2]: +
- T. GLABRATA reading at 24 h ([3]; pH 6): +

Compound: N=C(N)NCCC[C@H](NC(=O)[C@@H](NC(=O)[C@H]1CCCN1)c1ccccc1)C(=O)Nc1ccc([N+](=O)[O-])cc1 [H-D-Pro-L-Phg-L-Arg-pNA.2AcOH] (H-[dP]-[Phg]-Arg-pNA)
- C. TROPICALIS reading at 24 h [2]: ++
- T. GLABRATA reading at 24 h ([3]; pH 6): -

Compound: N=C(N)NCCC[C@H](NC(=O)[C@@H]1CCCN1C(=O)[C@H]1CCCN1)C(=O)Nc1ccc([N+](=O)[O-])cc1 [H-D-Pro-L-Pro-L-Arg-pNA.2AcOH] (H-[dP]-Pro-Arg-pNA)
- Reading at 24 h [2]: ++++

Compound: N=C(N)NCCC[C@H](NC(=O)[C@@H]1CCCN1C(=O)CNC(=O)CN)C(=O)Nc1ccc([N+](=O)[O-])cc1 [H-Gly-Gly-L-Pro-L-Arg-pNA.2AcOH] (H-GGPR-pNA)
- C. TROPICALIS reading at 24 h [2]: +
- Specificity: interference with C. tropicalis ([2]; Table IV): (d)
- T. GLABRATA reading at 24 h ([3]; pH 6): +
- Reading at 24 h [4]: ++

Compound: N=C(N)NCCC[C@H](NC(=O)[C@@H]1CCCCN1C(=O)CN)C(=O)Nc1ccc([N+](=O)[O-])cc1 [H-Gly-L-Pip-L-Arg-pNA.2AcOH] (H-Gly-[Pip]-Arg-pNA)
- Reading at 24 h [1]: ++
- Specificity: interference with C. tropicalis ([2]; Table I): (b)

Compound: NCC(=O)N1CCC[C@H]1C(=O)Nc1ccc([N+](=O)[O-])cc1 [H-Gly-L-Pro-pNA.AcOH] (H-Gly-Pro-pNA)
- hydrolysis by the strains of C. tropicalis [6]: hydrolyzed

Compound: CC(=O)O.O=C(Nc1ccc([N+](=O)[O-])cc1)[C@H]1NCCC1O (stereo partly drawn) [H-L-3Hyp-pNA.AcOH]
- Specificity: nonspecific for the strains of Candida albicans [1]: (a)
- Reading at 24 h [1]: +++

Compound: N=C(N)NCCC[C@H](NC(=O)[C@@H]1CCCN1C(=O)[C@@H]1C[C@@H](O)CN1)C(=O)Nc1ccc([N+](=O)[O-])cc1 [H-L-4Hyp-L-Pro-L-Arg-pNA.2AcOH] (H-[Hyp]-Pro-Arg-pNA)
- Reading at 24 h [1]: ++++
- Specificity: interference with C. tropicalis ([2]; Table I): (b)

Compound: CC(=O)O.O=C(Nc1ccc([N+](=O)[O-])cc1)[C@@H]1CC(O)CN1 (stereo partly drawn) [H-L-4Hyp-pNA.AcOH]
- Specificity: nonspecific for the strains of Candida albicans [1]: (a)
- Reading at 24 h [1]: +++

Compound: C[C@H](N)C(=O)N[C@@H](C)C(=O)N1CCC[C@H]1C(=O)Nc1ccc([N+](=O)[O-])cc1 [H-L-Ala-L-Ala-L-Pro-pNA.AcOH] (H-Ala-Ala-Pro-pNA)
- Specificity: nonspecific for the strains of Candida albicans [1]: (a)
- Reading at 48 h ([1]; same medium, reading at 48 h): +

Compound: C[C@H](N)C(=O)N1CCC[C@H]1C(=O)Nc1ccc([N+](=O)[O-])cc1 [H-L-Ala-L-Pro-pNA.AcOH] (H-Ala-Pro-pNA)
- Specificity: nonspecific for the strains of Candida albicans [1]: (a)
- Reading at 24 h [1]: ++

Compound: CC(=O)O.CC(=O)O.N=C(N)NCCC[C@H](N)C(=O)Nc1ccc([N+](=O)[O-])cc1 [H-L-Arg-pNA.2AcOH]
- Specificity: nonspecific for the strains of Candida albicans [1]: (a)
- Reading at 24 h [1]: +++

Compound: CC(=O)O.O=C(Nc1ccc2ccccc2c1)[C@@H]1C[C@@H](O)CN1 [H-L-Hyp-NA.AcOH, reference compound]
- Specificity: nonspecific for the strains of Candida albicans [1]: (a)
- Reading at 24 h [1]: ++

Compound: CC(C)C[C@H](N)C(=O)NCC(=O)N[C@@H](CCCNC(=N)N)C(=O)Nc1ccc([N+](=O)[O-])cc1 [H-L-Leu-Gly-L-Arg-pNA.2AcOH] (H-Leu-Gly-Arg-pNA)
- Reading at 24 h [2]: ++++

Compound: CC(=O)O.COc1cc(NC(=O)[C@@H]2CCCN2)cc2ccccc12 [H-L-Pro-(4-MeO)NA.AcOH, reference compound]
- Reading at 24 h [1]: -

Compound: CC(=O)O.O=C(Nc1ccc2cc(Br)ccc2c1)[C@@H]1CCCN1 [H-L-Pro-(6-Br)NA.AcOH, reference compound]
- Specificity: nonspecific for the strains of Candida albicans [1]: (a)
- Reading at 24 h [1]: +

Compound: N=C(N)NCCC[C@H](NC(=O)[C@@H]1CCCN1)C(=O)Nc1ccc([N+](=O)[O-])cc1 [H-L-Pro-L-Arg-pNA.2AcOH] (H-Pro-Arg-pNA)
- Reading at 24 h [2]: ++

Compound: N=C(N)NCCC[C@H](NC(=O)[C@@H]1CCCN1C(=O)[C@@H]1CCCN1)C(=O)Nc1ccc([N+](=O)[O-])cc1 [H-L-Pro-L-Pro-L-Arg-pNA.2AcOH] (H-Pro-Pro-Arg-pNA)
- Reading at 24 h [1]: +++
- Specificity: interference with C. tropicalis ([2]; Table I): (b)
- Reading at 24 h [2]: ++++
- Specificity: interference with C. tropicalis ([2]; Table IV): (a)
- Reading at 24 h [4]: -

Compound: CC(=O)O.O=C(Nc1ccc2ccccc2c1)[C@@H]1CCCN1 [H-L-Pro-NA.AcOH, reference compound]
- Specificity: nonspecific for the strains of Candida albicans [1]: (a)
- Reading at 24 h [1]: ++

Compound: CC(=O)O.COCCOCCOC(=O)NC(CCCN=C(N)N)C(=O)Nc1ccc([N+](=O)[O-])cc1 [MeO(CH2 CH2 O)2 CO-L-Arg-pNA.AcOH]
- Reading at 24 h [1]: -

Compound: O=C(NCC(=O)N1CCC[C@H]1C(=O)Nc1ccc([N+](=O)[O-])cc1)OCc1ccccc1 [Z-Gly-L-Pro-pNA] (Cbz-Gly-Pro-pNA)
- Reading at 24 h [1]: -

Compound: CC(=O)O.NCCCC[C@H](NC(=O)OCc1ccccc1)C(=O)Nc1ccc([N+](=O)[O-])cc1 [Z-L-Lys-pNA.AcOH]
- Reading at 24 h [1]: -

Compound: Boc-L-Hyp-L-Pro-L-Arg-pNA.AcOH
- C. TROPICALIS reading at 24 h [2]: +
- T. GLABRATA reading at 24 h ([3]; Table III, medium pH 6.0): -

Compound: BzNH-D-Ala-Gly-L-Arg-pNA.AcOH
- C. TROPICALIS reading at 24 h [2]: ++
- T. GLABRATA reading at 24 h ([3]; Table III, medium pH 6.0): -

Compound: BzNH-L-Ala-Gly-L-Arg-pNA.AcOH
- C. TROPICALIS reading at 24 h [2]: +++
- T. GLABRATA reading at 24 h ([3]; Table III, medium pH 6.0): -

Compound: EM-L-Hyp-L-Arg-pNA.AcOH
- C. TROPICALIS reading at 48 h ([2]; Table III footnotes): +++
- C. TROPICALIS reading at 24 h [2]: ++
- T. GLABRATA reading at 48 h ([3]; Table III footnotes): +++
- T. GLABRATA reading at 24 h ([3]; Table III, medium pH 6.0): -

Compound: H-D-Pro-L-Hyp-L-Arg-pNA.2AcOH
- Reading at 24 h [2]: +++

Compound: H-L-Hyp-L-Arg-pNA.2AcOH
- Reading at 24 h [2]: ++

Compound: H-L-Hyp-L-Hyp-L-Arg-pNA.2AcOH
- Reading at 24 h [2]: +++

Compound: H-L-Hyp-L-Lys-pNA.2AcOH
- Reading at 24 h [2]: ++

Compound: H-L-Hyp-L-Pro-L-Arg-pNA.2AcOH
- Reading at 24 h [2]: +++

Compound: H-L-ONC-L-Arg-pNA.AcOH
- Reading at 24 h [4]: ++
- Specificity: interference with C. krusei ([4]; Table V): (b)
- Specificity: interference with C. guillermondii ([5]; Table IV): (e)
- Reading at 24 h [5]: ++++

Compound: H-L-ONC-L-Pro-L-Arg-pNA.AcOH
- Reading at 24 h [2]: +++

Compound: MM-L-Phg-L-Arg-pNA.AcOH
- C. TROPICALIS reading at 24 h [2]: ++
- T. GLABRATA reading at 24 h ([3]; Table III, medium pH 6.0): + +++

Compound: Z-L-Ala-L-Pro-pNA
- Reading at 24 h [1]: -
